Measurements published in US20240409556A1, “BENZOPIPERAZINE AND RELATED ANALOGS FOR INHIBITING YAP/TAZ-TEAD” (Springworks Therapeutics, Inc., priority 2023, published 2024).

Assays:
Format in all cases: cell-based
[1] = test system: NCI-H2052 mesothelioma cell line; experiment: Mesothelioma cell line proliferation assay, NCI-H2052 (ATPlite); settings: NCI-H2052 cells, 6 days with compound, cell viability by ATPlite
Description: (§1) Example 57: Activity of Compounds of the Disclosure in Mesothelioma Cell Line Proliferation Assays
(§2) Mesothelioma cell lines, NCI-H226 and NCI-H2052 (both sourced from the ATCC cell culture collection) were plated in 96-well plates (Corning® 96 Well White Polystyrene Microplate clear flat bottom, white polystyrene (TC-Treated)), at 1500 cells/well in full medium (RPMI 1640 ATCC modification with L-glutamine, HEPES, Phenol Red, Sodium Pyruvate, High glucose, Low sodium bicarbonate and 10% fetal bovine serum). Cells were incubated overnight at 37° C. in an incubator with 5% CO2. Then compounds, dissolved in DMSO, were added in dose-response. Cells were incubated with compound dilutions for another 6 days at 37° C. in an incubator with 5% CO2. Cell viability was quantitated using the ATPlite kit (Perkin-Elmer) and the luminescence was read-out using an Envision instrument (Perkin-Elmer). The amount of relative light units produced using the ATPlite kit was used to calculate percent of inhibition.
(§3) The activities of some example compounds are depicted in Table 4. The activity ranges A, B and C refer to EC50 values in the mesothelioma cell line proliferation assay as described as follows: “A”: EC50<1 μM; “B”: 1 μM≤EC50≤10 μM and “C”: EC50>10 μM; NT: not tested.

[2] = test system: NCI-H226 mesothelioma cell line; experiment: Mesothelioma cell line proliferation assay, NCI-H226 (ATPlite); settings: NCI-H226 cells, 6 days with compound, cell viability by ATPlite
Description: as §1, §2, §3

[3] = test system: YAP/TAZ-TEAD transcription; experiment: Reporter gene assay for measuring the inhibition of YAP/TAZ-TEAD transcription (TEAD-responsive element luciferase reporter in Hek293T cells); settings: 24 hours incubation
Method in brief: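 HEK293T cells transiently transfected with a TEAD-responsive luciferase reporter were exposed to compounds for 24 h at 37° C/5% CO2, then luminescence was read. Percent inhibition normalised to vehicle (0%) and positive-control inhibitor (100%); IC50 derived.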

IC50 ([3]; Homo sapiens, HEK-293T, 24 h) [µM]	SMILES	further results
–	C=CC(=O)N1CCN2c3nccnc3N(c3ccc(C(F)(F)F)cc3)CC2C1 (stereo not shown) [41-En2, 1-(5-(4-(trifluoromethyl)phenyl)-5,6,6a,7,9,10-hexahydro-8H-dipyrazino[1,2-a:2′,3′-e]pyrazin-8-yl)prop-2-en-1-one]	EC50 [1]: < 1 µM; EC50 [2]: < 1 µM
–	C=CC(=O)NCC1CN(c2ccc(C(F)(F)F)cc2)c2cccnc2O1 (stereo not shown) [48-En1, N-((1-(4-(trifluoromethyl)phenyl)-2,3-dihydro-1H-pyrido[2,3-b][1,4]oxazin-3-yl)methyl)acrylamide]	EC50 ([1]; Homo sapiens, 144 h): < 1 µM; EC50 ([2]; Homo sapiens, 144 h): < 1 µM
–	CC(=O)NCC1CN(c2ccc(C(F)(F)F)cc2)c2ccccc2O1 (single isomer, unassigned) [36-En1, (R)- or (S)-N-((4-(4-(trifluoromethyl)phenyl)-3,4-dihydro-2H-benzo[b][1,4]oxazin-2-yl)methyl)acetamide]	IC50 [3]: < 1 µM; EC50 [2]: < 1 µM
< 1	CC(=O)NCC1CN(c2ccc(C(F)(F)F)cc2)c2ccccc2N1 (single isomer, unassigned) [34-En2, (R)- or (S)-N-((4-(4-(trifluoromethyl)phenyl)-1,2,3,4-tetrahydroquinoxalin-2-yl)methyl)acetamide]	EC50 [2]: < 1 µM
< 1	C=CC(=O)N1CCN2c3ccccc3N(c3ccc(C(F)(F)F)cc3)CC2C1 (stereo not shown) [compound 14, 1-(6-(4-(trifluoromethyl)phenyl)-1,2,4,4a,5,6-hexahydro-3H-pyrazino[1,2-a]quinoxalin-3-yl)prop-2-en-1-one]	EC50 [2]: < 1 µM
< 1	CC(C)(O)C(=O)N[C@@H]1C[C@@H]2CN(c3ccc(C(F)(F)F)cc3)c3cccnc3N2C1 [compound 110, 2-hydroxy-2-methyl-N-((6aR,8R)-5-(4-(trifluoromethyl)phenyl)-5,6,6a,7,8,9-hexahydropyrido[3,2-e]pyrrolo[1,2-a]pyrazin-8-yl)propanamide]	–
1 to 10	CC(=O)NCC1CN(c2ccc(C(F)(F)F)cc2)c2ccc(C(F)(F)F)nc2O1 (stereo not shown) [compound 76, N-((6-(trifluoromethyl)-1-(4-(trifluoromethyl)phenyl)-2,3-dihydro-1H-pyrido[2,3-b][1,4]oxazin-3-yl)methyl)acetamide]	–
1 to 10	CN(c1ccc(C(F)(F)F)cc1)c1ccccc1N1CCC(C(=O)O)CC1 [compound 118, 1-(2-(methyl(4-(trifluoromethyl)phenyl)amino)phenyl)piperidine-4-carboxylic acid]	–
1 to 10	O=S1(=O)CCN2c3ncccc3N(c3ccc(C(F)(F)F)cc3)CC2C1 (stereo not shown) [compound 68, 5-(4-(trifluoromethyl)phenyl)-5,6,6a,7,9,10-hexahydropyrido[3′,2′:5,6]pyrazino[2,1-c][1,4]thiazine 8,8-dioxide]	–
< 1	O=C1CN(c2ccc(C(F)(F)F)cc2)c2ccccc2N1Cc1cn[nH]c1 [compound 80, 1-((1H-pyrazol-4-yl)methyl)-4-(4-(trifluoromethyl)phenyl)-3,4-dihydroquinoxalin-2(1H)-one]	–
–	CC(=O)NCC1CN(c2ccc(C(F)(F)F)cc2)c2cc(Cl)cnc2O1 (stereo not shown) [compound 75, N-((7-chloro-1-(4-(trifluoromethyl)phenyl)-2,3-dihydro-1H-pyrido[2,3-b][1,4]oxazin-3-yl)methyl)acetamide]	IC50 [3]: < 1 µM
–	CC(=O)N1CC2CN(c3ccc(C(F)(F)F)cc3)c3ccccc3N2CC1C(=O)O (stereo not drawn) [compound 90, (cis)- or (trans)-3-acetyl-6-(4-(trifluoromethyl)phenyl)-2,3,4,4a,5,6-hexahydro-1H-pyrazino[1,2-a]quinoxaline-2-carboxylic acid]	IC50 [3]: > 10 µM
< 1	CC(C)C(=O)N1CCN2c3ncccc3N(c3ccc(C(F)(F)F)cc3)CC2C1 (stereo not shown) [compound 47, 2-methyl-1-(5-(4-(trifluoromethyl)phenyl)-5,6,6a,7,9,10-hexahydro-8H-pyrazino[1,2-a]pyrido[3,2-e]pyrazin-8-yl)propan-1-one]	–
–	CC(=O)N1CC2CN(c3ccc(C(F)(F)F)cc3)c3ccccc3N2CC1C(=O)O (stereo not drawn) [compound 91, (cis)- or (trans)-3-acetyl-6-(4-(trifluoromethyl)phenyl)-2,3,4,4a,5,6-hexahydro-1H-pyrazino[1,2-a]quinoxaline-2-carboxylic acid]	IC50 [3]: < 1 µM
< 1	CS(=O)(=O)N1CCN2c3ccccc3N(c3ccc(C(F)(F)F)cc3)CC2C1 (stereo not shown) [compound 16, 3-(methylsulfonyl)-6-(4-(trifluoromethyl)phenyl)-2,3,4,4a,5,6-hexahydro-1H-pyrazino[1,2-a]quinoxaline]	–
> 10	FC(F)(F)c1ccc(N2CCN(Cc3ccno3)c3ccccc32)cc1 [compound 69, 5-((4-(4-(trifluoromethyl)phenyl)-3,4-dihydroquinoxalin-1(2H)-yl)methyl)isoxazole]	–
< 1	Cc1ccc(Nc2ccc(C(F)(F)F)cc2)c(N2CCC(C(=O)O)CC2)n1 [compound 125, 1-(6-methyl-3-((4-(trifluoromethyl)phenyl)amino)pyridin-2-yl)piperidine-4-carboxylic acid]	–
> 10	CNS(=O)(=O)N1CCN2C(=O)CN(c3ccc(C(F)(F)F)cc3)CC2C1 (stereo not shown) [compound 72, N-methyl-6-oxo-8-(4-(trifluoromethyl)phenyl)octahydro-2H-pyrazino[1,2-a]pyrazine-2-sulfonamide]	–
–	CNS(=O)(=O)N1CCN2c3ccccc3N(c3ccc(C(F)(F)F)cc3)CC2C1 (single isomer, unassigned) [32-En2, (R)- or (S)-N-methyl-6-(4-(trifluoromethyl)phenyl)-1,2,4,4a,5,6-hexahydro-3H-pyrazino[1,2-a]quinoxaline-3-sulfonamide]	IC50 [3]: < 1 µM; EC50 [2]: < 1 µM
1 to 10	FC(F)(F)c1ccc(N2CC3CC(c4nnn[nH]4)CCN3c3ccccc32)cc1 (stereo not shown) [121-D1, 8-(1H-tetrazol-5-yl)-5-(4-(trifluoromethyl)phenyl)-6,6a,7,8,9,10-hexahydro-5H-pyrido[1,2-a]quinoxaline]	–
< 1	COC(=O)N1CCN2c3ccccc3N(c3ccc(C(F)(F)F)cc3)CC2C1 (stereo not shown) [compound 20, methyl 6-(4-(trifluoromethyl)phenyl)-1,2,4,4a,5,6-hexahydro-3H-pyrazino[1,2-a]quinoxaline-3-carboxylate]	–
–	CC(=O)NCC1CN(c2ccc(C(F)(F)F)cc2)c2cc(Cl)cnc2O1 (single isomer, unassigned) [75-En1, (R)- or (S)-N-((7-chloro-1-(4-(trifluoromethyl)phenyl)-2,3-dihydro-1H-pyrido[2,3-b][1,4]oxazin-3-yl)methyl)acetamide]	IC50 [3]: > 10 µM
< 1	O=C(O)C1CCN(c2ncccc2Nc2ccc(C(F)(F)F)cc2)CC1 [compound 124, 1-(3-((4-(trifluoromethyl)phenyl)amino)pyridin-2-yl)piperidine-4-carboxylic acid]	–
< 1	C=CC(=O)NCC1CN(c2ccc(C(F)(F)F)cc2)c2ccccc2N1CC(N)=O (stereo not shown) [compound 11, N-((1-(2-amino-2-oxoethyl)-4-(4-(trifluoromethyl)phenyl)-1,2,3,4-tetrahydroquinoxalin-2-yl)methyl)acrylamide]	–
< 1	FC(F)(F)c1ccc(N2CCN(Cc3ncc[nH]3)c3ccccc32)cc1 [compound 62, 1-((1H-imidazol-2-yl)methyl)-4-(4-(trifluoromethyl)phenyl)-1,2,3,4-tetrahydroquinoxaline]	–
